Reference: publication PMC10829512, “Transport of metformin metabolites by guanidinium exporters of the small multidrug resistance family” (The Journal of General Physiology, 2024)

How the values were obtained:
Fluc-Bpe = Fluc-Bpe (Bordetella pertussis, UniProt Q7VYU0); assay: SSM electrophysiology cross-reactivity control with individually reconstituted Fluc-Bpe; assay type: biochemical
Description: SSM experiments were performed using SURFE^2R N1 instrument (Nanion Technologies). Sensors were prepared with a 1,2-diphytanoyl-sn-glycero-3-phosphocholine (DPhPC) lipid monolayer according to published protocols ([Bazzone et al., 2017]). Each sensor’s capacitance and conductance were verified before use (<80 nF capacitance, <50 nS conductance) using Nanion software protocols. Proteoliposome stock was diluted 1:25 in assay buffer (100 mM KCl, 100 mM KPO4, pH 7.5) prior to adsorption to the DPhPC monolayer. For substrate screening experiments, reference substrate samples (Gdm^+ for SMRGdx, and TPA^+ for SMRQac) were checked periodically to test for the stability of the sensor; if the current amplitude of the reference compound differed by >10% on one sensor, it indicated the desorption of liposomes, and the sensor was not used for further experiments. For every SSM electrophysiology experiment, we used the same general solution exchange protocol: after 2 s perfusion with a non-activating solution, we perfused substrate-containing buffer for 2 s and then returned to the equilibrium condition with a 4 s perfusion of non-activating buffer. […]
The adsorption of proteoliposomes to the sensor is subject to considerable variability from experiment to experiment, so the current measurements from different sensors cannot be quantitatively compared ([Barthmes et al., 2016]). […]

Gdx-Clo = molecular target: T1, Gdx-Clo (Clostridiales bacterium oral taxon 876, UniProt U2EQ00); assay: Pyranine stoichiometry assay in proteoliposomes; assay type: biochemical, Clostridales oral taxon 876; details: 10-fold substrate gradient, equilibrium at −60 mV
T1 sequence (U2EQ00 1-105): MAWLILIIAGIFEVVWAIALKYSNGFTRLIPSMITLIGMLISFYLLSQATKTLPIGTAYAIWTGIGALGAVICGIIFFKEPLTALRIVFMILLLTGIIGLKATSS
Description: Unilamellar liposomes were formed by extrusion through a 400-nm membrane filter and the external pyranine was removed by passing liposomes through a Sephadex G-50 column spin column equilibrated in an internal buffer with substrate. The external assay buffers contained 25 mM HEPES, pH 7.53, 0.4 mM substrate, and varying KCl concentration (3–46 mM) to establish the membrane potential, with NaCl to bring the total salt concentration to 200 mM. Proteoliposomes were diluted 200-fold into the external buffer, and after ∼30 s to establish a baseline, valinomycin (final concentration 0.2 ng/ml) was added together with the substrate (final concentration 4 mM). Fluorescence spectra were monitored (λex = 455 nm; λem = 515 nm) for ∼300 s. The membrane potential was calculated using the Nernst potential for K^+: ψcalc=RT/Fln[K^+]out/[K^+]in. (1)
Fluorescence emission time courses were corrected for baseline drift measured prior to substrate and valinomycin addition. The stoichiometry was determined from the voltage at which electrochemical equilibrium occurred (no change in fluorescence over time) using the following equation: Erev=(n/m−n*RT/Fln[substrate^+]in/[substrate^+]out), (2) where n and m represent the stoichiometric coefficients of substrate and protons, respectively. […]

Sequence of Fluc-Bpe (Q7VYU0 whole entry): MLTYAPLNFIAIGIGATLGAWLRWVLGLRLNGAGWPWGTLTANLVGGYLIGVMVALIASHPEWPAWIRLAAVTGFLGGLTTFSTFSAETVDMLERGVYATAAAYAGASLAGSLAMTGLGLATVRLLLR

For `N=C(N)NC(N)=O` [Guanylurea, guanylurea], the “Response of Fluc-Bpe to substrate perfusion” value (Fluc-Bpe) was “do not elicit a response” and the Proton coupling stoichiometry (Gdx-Clo) was 2 H^+: 1 solute.

With `N=C(N)N` [Gdm^+, guanidinium] the “Response of Fluc-Bpe to substrate perfusion” value (Fluc-Bpe) was “do not elicit a response” and the Proton coupling stoichiometry (Gdx-Clo) was 2 H^+: 1 solute.
